Assays:
Assay in all cases: relative viability (nuclei count vs DMSO), 5 days (fraction); higher = more cells survive
Linifanib + Tozasertib = compound: Cc1ccc(F)c(NC(=O)Nc2ccc(-c3cccc4[nH]nc(N)c34)cc2)c1 [Linifanib] + Cc1cc(Nc2cc(N3CCN(C)CC3)nc(Sc3ccc(NC(=O)C4CC4)cc3)n2)n[nH]1 [Tozasertib] (partner 0.1 µM)
Outline: (§1)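 Dosing by pin tool came one day after lung cancer cell lines were seeded in 1536-well plates, using either one drug or a fixed anchor-drug dose plus five library-drug doses (not always all listed) in √10 steps. After 5 days, nuclei were counted on 4× images. Relative viability is treated-well nuclei count divided by vehicle-well nuclei count, and values are medians of duplicate plates.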

Linifanib + Foretinib = compound: Cc1ccc(F)c(NC(=O)Nc2ccc(-c3cccc4[nH]nc(N)c34)cc2)c1 [Linifanib] + COc1cc2c(Oc3ccc(NC(=O)C4(C(=O)Nc5ccc(F)cc5)CC4)cc3F)ccnc2cc1OCCCN1CCOCC1 [Foretinib] (partner 0.25 µM)
Outline: as §1

Linifanib + Crizotinib = compound: Cc1ccc(F)c(NC(=O)Nc2ccc(-c3cccc4[nH]nc(N)c34)cc2)c1 [Linifanib] + C[C@@H](Oc1cc(-c2cnn(C3CCNCC3)c2)cnc1N)c1c(Cl)ccc(F)c1Cl [Crizotinib] (partner 1 µM)
Outline: as §1

Linifanib + Palbociclib = compound: Cc1ccc(F)c(NC(=O)Nc2ccc(-c3cccc4[nH]nc(N)c34)cc2)c1 [Linifanib] + CC(=O)c1c(C)c2cnc(Nc3ccc(N4CCNCC4)cn3)nc2n(C2CCCC2)c1=O [Palbociclib] (partner 0.5 µM)
Outline: as §1

Linifanib = compound: Cc1ccc(F)c(NC(=O)Nc2ccc(-c3cccc4[nH]nc(N)c34)cc2)c1 [Linifanib]
Outline: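 Only plates meeting two conditions passed: control CV below 25% and at least one doubling. Lung cancer cell lines, kept overnight at 37 °C in 1536-well plates, were pinned with five library-drug doses (not always all listed) √10 apart on vehicle-anchored plates and grown 5 days without medium change. A one-step fix, permeabilisation and Hoechst stain preceded 4× imaging and MetaXpress nuclear counting. Viability equals treated-well nuclei divided by vehicle-well nuclei, as the median over plates.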

Linifanib + Trametinib = compound: Cc1ccc(F)c(NC(=O)Nc2ccc(-c3cccc4[nH]nc(N)c34)cc2)c1 [Linifanib] + CC(=O)Nc1cccc(-n2c(=O)n(C3CC3)c(=O)c3c(Nc4ccc(I)cc4F)n(C)c(=O)c(C)c32)c1 [Trametinib] (partner 0.02 µM)
Outline: as §1

Cell Line	relative viability (Linifanib + Tozasertib; first compound 0.03162 µM)	relative viability (Linifanib + Tozasertib; first compound 0.1 µM)	relative viability (Linifanib + Tozasertib; first compound 0.3162 µM)	relative viability (Linifanib + Foretinib; first compound 0.03162 µM)	relative viability (Linifanib + Foretinib; first compound 0.1 µM)	relative viability (Linifanib + Foretinib; first compound 0.3162 µM)	relative viability (Linifanib + Crizotinib; first compound 0.03162 µM)	relative viability (Linifanib + Crizotinib; first compound 0.1 µM)	relative viability (Linifanib + Crizotinib; first compound 0.3162 µM)	relative viability (Linifanib + Palbociclib; first compound 0.03162 µM)	relative viability (Linifanib + Palbociclib; first compound 0.1 µM)	relative viability (Linifanib + Palbociclib; first compound 0.3162 µM)	relative viability (Linifanib; 0.03162 µM)	relative viability (Linifanib; 0.1 µM)	relative viability (Linifanib; 0.3162 µM)	relative viability (Linifanib + Trametinib; first compound 0.03162 µM)	relative viability (Linifanib + Trametinib; first compound 0.1 µM)	relative viability (Linifanib + Trametinib; first compound 0.3162 µM)
ABC-1	0.152	0.173	0.176	1.02	1.08	0.921	1.28	1.27	0.996	0.754	0.797	0.787	1.03	0.842	0.672			
NCI-H3122	0.456	0.437	0.371	0.946	0.965	0.932	0.281	0.263	0.261	0.19	0.196	0.179	1.02	1.02	0.975	0.273	0.251	0.19
EPLC-272H	0.346	0.209	0.181	0.643	0.657	0.556	0.813	0.913	0.826	0.333	0.338	0.294	0.883	1.23	0.884	0.254	0.292	0.274
NCI-H1793	0.253	0.467	0.372	0.843	0.953	0.734				0.31	0.349	0.292	0.908	1.08	0.941	0.372	0.56	0.434
NCI-H1792							0.941	1.06	0.984	0.611	0.666	0.621	0.935	0.944	0.928	0.389	0.459	0.439
SW 900	0.392	0.614	0.692	0.925	0.987	0.666				0.551	0.603	0.514	0.912	1.02	0.865	0.76	0.83	0.912
HCC-44	0.558	1.05	0.812				0.839	0.831	0.733	0.996	0.955	1.01	1.05	0.95	0.944	1.05	1.07	1.03
NCI-H596	0.798	0.815	0.9	0.981	0.783	0.907	0.913	0.902	1.05				0.94	1.03	0.884	0.813	0.894	0.749
NCI-H2342	0.544	0.492	0.529	1.18	1.2	1.15				0.594	0.562	0.481	1.04	0.977	0.882	0.848	0.744	0.878

Source: the supplement of paper PMC10307832
